ChEMBL document CHEMBL1201862, “PubChem BioAssay data set” (2004)
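Test compounds were applied to cells in 96-well plates for 48 hours at 5 doses. Here, GI50 denotes the concentration required for 50% inhibition of growth.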 Activity calls are given as the source filed them. Rule as the data show it: active = GI50 up to about 1.1 µM and inactive = higher.

Tests used:
Experiment in all cases: NCI anticancer screen, dose series, 48 h
K562 = system: K562
SK-MEL-28 = system: SK-MEL-28
UACC-62 = system: UACC-62
MCF7 = system: MCF7
T47D = system: T47D
SF-295 = system: SF-295
MOLT-4 = system: MOLT-4
SK-MEL-5 = system: SK-MEL-5
OVCAR-5 = system: OVCAR-5
Hs-578T = system: Hs-578T
OVCAR-8 = system: OVCAR-8
CCRF-CEM = system: CCRF-CEM
BT-549 = system: BT-549
OVCAR-3 = system: OVCAR-3
SF-268 = system: SF-268
HCT-15 = system: HCT-15
MDA-MB-231 = system: MDA-MB-231
UO-31 = system: UO-31
TK-10 = system: TK-10
EKVX = system: EKVX
DU-145 = system: DU-145
SR = system: SR
NCI-H23 = system: NCI-H23
IGROV-1 = system: IGROV-1
SNB-75 = system: SNB-75
RPMI-8226 = system: RPMI-8226
NCI-H522 = system: NCI-H522
Malme-3M = system: Malme-3M
M14 = system: M14
HT-29 = system: HT-29
ACHN = system: ACHN
U-251 = system: U-251
SF-539 = system: SF-539
A498 = system: A498
SW-620 = system: SW-620
MDA-MB-435 = system: MDA-MB-435
OVCAR-4 = system: OVCAR-4
SK-OV-3 = system: SK-OV-3
CAKI-1 = system: CAKI-1
KM12 = system: KM12
A549 = system: A549
NCI-H226 = system: NCI-H226
COLO 205 = system: COLO 205
RXF 393 = system: RXF 393
NCI/ADR-RES = system: NCI/ADR-RES
HOP-92 = system: HOP-92
SK-MEL-2 = system: SK-MEL-2
NCI-H460 = system: NCI-H460
HL-60 = system: HL-60
PC-3 = system: PC-3
LOX IMVI = system: LOX IMVI
HOP-62 = system: HOP-62
786-0 = system: 786-0
MDA-N = system: MDA-N
SN12C = system: SN12C
HCC 2998 = system: HCC 2998
UACC-257 = system: UACC-257
HCT-116 = system: HCT-116
SNB-19 = system: SNB-19

C=CCN(c1cc(OCc2ccccc2)c2[nH]cc(C)c2c1)S(C)(=O)=O
GI50 (K562): > 100000 nM (inactive) | GI50 (SK-MEL-28): 48800 nM (inactive) | GI50 (UACC-62): 22800 nM (inactive) | GI50 (MCF7): 59700 nM (inactive) | GI50 (T47D): 18800 nM (inactive) | GI50 (SF-295): 31500 nM (inactive) | GI50 (MOLT-4): 33500 nM (inactive) | GI50 (SK-MEL-5): 52400 nM (inactive) | GI50 (OVCAR-5): 79800 nM (inactive) | GI50 (Hs-578T): 45800 nM (inactive) | GI50 (OVCAR-8): 61900 nM (inactive) | GI50 (CCRF-CEM): > 100000 nM (inactive) | GI50 (BT-549): > 100000 nM (inactive) | GI50 (OVCAR-3): 25000 nM (inactive) | GI50 (SF-268): 46700 nM (inactive) | GI50 (HCT-15): > 100000 nM | GI50 (MDA-MB-231): 44600 nM (inactive) | GI50 (UO-31): 41800 nM (inactive) | GI50 (TK-10): 92300 nM (inactive) | GI50 (EKVX): 24200 nM (inactive) | GI50 (DU-145): 40000 nM (inactive) | GI50 (SR): > 100000 nM (inactive) | GI50 (NCI-H23): 87100 nM (inactive) | GI50 (IGROV-1): 88700 nM (inactive) | GI50 (SNB-75): 19800 nM (inactive) | GI50 (RPMI-8226): 39400 nM (inactive) | GI50 (NCI-H522): 37000 nM (inactive) | GI50 (Malme-3M): 27500 nM (inactive) | GI50 (M14): > 100000 nM (inactive) | GI50 (HT-29): 60800 nM (inactive) | GI50 (ACHN): 37600 nM (inactive) | GI50 (U-251): 46700 nM (inactive) | GI50 (SF-539): 56200 nM (inactive) | GI50 (A498): 29200 nM (inactive) | GI50 (SW-620): > 100000 nM (inactive) | GI50 (MDA-MB-435): 72100 nM (inactive) | GI50 (OVCAR-4): 34400 nM (inactive) | GI50 (SK-OV-3): 37300 nM (inactive) | GI50 (CAKI-1): 61700 nM (inactive) | GI50 (KM12): 51400 nM (inactive) | GI50 (A549): 34700 nM (inactive) | GI50 (NCI-H226): 28700 nM (inactive) | GI50 (COLO 205): > 100000 nM (inactive) | GI50 (RXF 393): 23100 nM (inactive) | GI50 (NCI/ADR-RES): 53100 nM (inactive) | GI50 (HOP-92): 44000 nM (inactive) | GI50 (SK-MEL-2): 41700 nM (inactive) | GI50 (NCI-H460): 76200 nM (inactive) | GI50 (HL-60): > 100000 nM (inactive) | GI50 (PC-3): 49400 nM (inactive) | GI50 (LOX IMVI): > 100000 nM (inactive) | GI50 (HOP-62): 39000 nM (inactive) | GI50 (786-0): 33800 nM (inactive) | GI50 (MDA-N): 89700 nM (inactive) | GI50 (SN12C): 51300 nM (inactive) | GI50 (HCC 2998): > 100000 nM (inactive) | GI50 (UACC-257): 52700 nM (inactive) | GI50 (HCT-116): 66400 nM (inactive) | GI50 (SNB-19): 57900 nM (inactive)

CCCC(=O)Nc1cc(/C=C/C(=O)N2CC(CCl)c3c2cc(OC(C)=O)c2[nH]cc(C)c32)n(C)c1 (stereo not drawn)
GI50 (K562): 0.0306 nM (active) | GI50 (SK-MEL-28): 0.0452 nM (active) | GI50 (UACC-62): < 0.025 nM (active) | GI50 (MCF7): 0.0294 nM (active) | GI50 (T47D): 0.063 nM (active) | GI50 (SF-295): 0.0452 nM (active) | GI50 (MOLT-4): < 0.025 nM (active) | GI50 (SK-MEL-5): < 0.025 nM (active) | GI50 (OVCAR-5): 0.0724 nM (active) | GI50 (Hs-578T): 0.0656 nM (active) | GI50 (OVCAR-8): < 0.025 nM (active) | GI50 (CCRF-CEM): < 0.025 nM (active) | GI50 (BT-549): 0.0809 nM (active) | GI50 (OVCAR-3): < 0.025 nM (active) | GI50 (SF-268): < 0.025 nM (active) | GI50 (HCT-15): 0.547 nM | GI50 (MDA-MB-231): 0.0644 nM (active) | GI50 (UO-31): 0.0684 nM (active) | GI50 (TK-10): 0.363 nM (active) | GI50 (EKVX): 0.108 nM (active) | GI50 (DU-145): < 0.025 nM (active) | GI50 (SR): < 0.025 nM (active) | GI50 (NCI-H23): < 0.025 nM (active) | GI50 (IGROV-1): 0.0376 nM (active) | GI50 (SNB-75): 0.0577 nM (active) | GI50 (RPMI-8226): 0.171 nM (active) | GI50 (NCI-H522): < 0.025 nM (active) | GI50 (Malme-3M): 0.0323 nM (active) | GI50 (M14): 0.0538 nM (active) | GI50 (HT-29): 0.0549 nM (active) | GI50 (ACHN): < 0.025 nM (active) | GI50 (U-251): < 0.025 nM (active) | GI50 (SF-539): < 0.025 nM (active) | GI50 (A498): 0.116 nM (active) | GI50 (SW-620): 0.0296 nM (active) | GI50 (MDA-MB-435): 0.0495 nM (active) | GI50 (OVCAR-4): < 0.025 nM (active) | GI50 (SK-OV-3): 0.0705 nM (active) | GI50 (CAKI-1): 0.0766 nM (active) | GI50 (KM12): 0.0873 nM (active) | GI50 (A549): 0.0819 nM (active) | GI50 (NCI-H226): 0.0433 nM (active) | GI50 (COLO 205): 0.0703 nM (active) | GI50 (RXF 393): < 0.025 nM (active) | GI50 (NCI/ADR-RES): 0.24 nM (active) | GI50 (HOP-92): 0.0428 nM (active) | GI50 (SK-MEL-2): 0.0592 nM (active) | GI50 (NCI-H460): < 0.025 nM (active) | GI50 (HL-60): < 0.025 nM (active) | GI50 (PC-3): 0.0501 nM (active) | GI50 (LOX IMVI): < 0.025 nM (active) | GI50 (HOP-62): 0.0463 nM (active) | GI50 (786-0): < 0.025 nM (active) | GI50 (MDA-N): 0.0512 nM (active) | GI50 (SN12C): 0.0718 nM (active) | GI50 (HCC 2998): < 0.025 nM (active) | GI50 (UACC-257): 0.0297 nM (active) | GI50 (HCT-116): < 0.025 nM (active) | GI50 (SNB-19): 0.11 nM (active)
